From ChEMBL document CHEMBL1649565, “Besifloxacin, a novel fluoroquinolone, has broad-spectrum in vitro activity against aerobic and anaerobic bacteria” (Antimicrob Agents Chemother, 2009)
Values after ≈ are worked out from the molar mass of the structure shown. Active and inactive are the calls of the source. The calls are words filed in the database; no cut-off is given here.

Tests used:
Peptostreptococcus sp. [1] = test: Antibacterial activity against Peptostreptococcus sp. assessed as percent susceptible isolates by CLSI M11-A7 method; assay type: functional
[2] = test system: Streptococcus constellatus; test: Antibacterial activity against Streptococcus constellatus by CLSI M100-S18 method; assay type: functional
Bacteroides fragilis [3] = test: Antibacterial activity against Bacteroides fragilis assessed as percent susceptible isolates by CLSI M11-A7 method; assay type: functional
Staphylococcus aureus [4] = test: Antibacterial activity against ciprofloxacin-susceptible and methicillin-resistant Staphylococcus aureus assessed as percent susceptible isolates by CLSI M100-S18 method; assay type: functional
[5] = test system: Staphylococcus epidermidis
Streptococcus oralis = test: Antibacterial activity against Streptococcus oralis by CLSI M100-S18 method; assay type: functional
Staphylococcus aureus [6] = test: Antibacterial activity against non-ciprofloxacin-susceptible and methicillin-susceptible Staphylococcus aureus assessed as percent susceptible isolates by CLSI M100-S18 method; assay type: functional
Legionella pneumophila = test: Antibacterial activity against Legionella pneumophila by CLSI M7-A7 method; assay type: functional
[7] = Antibacterial activity against Lancefield Streptococcus sp. 'group C' assessed as percent susceptible isolates by CLSI M100-S18 method; assay type: functional
Staphylococcus aureus [8] = test: Antibacterial activity against ciprofloxacin-susceptible and methicillin-resistant Staphylococcus aureus by CLSI M100-S18 method; assay type: functional
Prevotella sp. [9] = test: Antibacterial activity against Prevotella sp. assessed as percent susceptible isolates by CLSI M11-A7 method; assay type: functional
Streptococcus pyogenes [10] = test: Antibacterial activity against Streptococcus pyogenes by CLSI M100-S18 method; assay type: functional
[11] = test system: Staphylococcus haemolyticus; test: Antibacterial activity against Staphylococcus haemolyticus by CLSI M100-S18 method; assay type: functional
[12] = test system: Staphylococcus epidermidis; test: Antibacterial activity against ciprofloxacin-susceptible and methicillin-resistant Staphylococcus epidermidis by CLSI M100-S18 method; assay type: functional
Citrobacter koseri [13] = test: Antibacterial activity against Citrobacter koseri by CLSI M7-A7 method; assay type: functional
Streptococcus agalactiae [14] = test: Antibacterial activity against Streptococcus agalactiae assessed as percent susceptible isolates by CLSI M100-S18 method; assay type: functional
[15] = Antibacterial activity against Lancefield Streptococcus sp. 'group G' assessed as percent susceptible isolates by CLSI M100-S18 method; assay type: functional
[16] = test system: Staphylococcus haemolyticus; test: Antibacterial activity against Staphylococcus haemolyticus assessed as percent susceptible isolates by CLSI M100-S18 method; assay type: functional
Cutibacterium acnes [17] = test: Antibacterial activity against Propionibacterium acnes assessed as percent susceptible isolates by CLSI M11-A7 method; assay type: functional
Fusobacterium sp. [18] = test: Antibacterial activity against Fusobacterium sp. assessed as percent susceptible isolates by CLSI M11-A7 method; assay type: functional
Streptococcus agalactiae [19] = test: Antibacterial activity against Streptococcus agalactiae by CLSI M100-S18 method; assay type: functional
Staphylococcus warneri [20] = test: Antibacterial activity against Staphylococcus warneri assessed as percent susceptible isolates by CLSI M100-S18 method; assay type: functional
Streptococcus salivarius = test: Antibacterial activity against Streptococcus salivarius by CLSI M100-S18 method; assay type: functional
[21] = test system: Staphylococcus saprophyticus; test: Antibacterial activity against Staphylococcus saprophyticus assessed as percent susceptible isolates by CLSI M100-S18 method; assay type: functional
Streptococcus pyogenes [22] = test: Antibacterial activity against Streptococcus pyogenes assessed as percent susceptible isolates by CLSI M100-S18 method; assay type: functional
[23] = test system: Staphylococcus epidermidis; test: Antibacterial activity against non-ciprofloxacin-susceptible and methicillin-susceptible Staphylococcus epidermidis by CLSI M100-S18 method; assay type: functional
Citrobacter koseri [24] = test: Antibacterial activity against Citrobacter koseri assessed as percent susceptible isolates by CLSI M7-A7 method; assay type: functional
Morganella morganii [25] = test: Antibacterial activity against Morganella morganii assessed as percent susceptible isolates by CLSI M7-A7 method; assay type: functional
[26] = Antibacterial activity against Lancefield Streptococcus sp. 'group G' by CLSI M100-S18 method; assay type: functional
[27] = Antibacterial activity against Lancefield Streptococcus sp. 'group C' by CLSI M100-S18 method; assay type: functional
Klebsiella oxytoca [28] = test: Antibacterial activity against Klebsiella oxytoca by CLSI M7-A7 method; assay type: functional
[29] = test system: Staphylococcus saprophyticus; test: Antibacterial activity against Staphylococcus saprophyticus by CLSI M100-S18 method; assay type: functional
Clostridium perfringens [30] = test: Antibacterial activity against Clostridium perfringens by CLSI M11-A7 method; assay type: functional
Staphylococcus warneri [31] = test: Antibacterial activity against Staphylococcus warneri by CLSI M100-S18 method; assay type: functional
Staphylococcus aureus [32] = test: Antibacterial activity against non-ciprofloxacin-susceptible and methicillin-susceptible Staphylococcus aureus by CLSI M100-S18 method; assay type: functional
Klebsiella oxytoca [33] = test: Antibacterial activity against Klebsiella oxytoca assessed as percent susceptible isolates by CLSI M7-A7 method; assay type: functional
[34] = test system: Staphylococcus epidermidis; remark: listed apart in the source
[35] = test system: Staphylococcus epidermidis; test: Antibacterial activity against non-ciprofloxacin-susceptible and methicillin-susceptible Staphylococcus epidermidis assessed as percent susceptible isolates by CLSI M100-S18 method; assay type: functional
Morganella morganii [36] = test: Antibacterial activity against Morganella morganii by CLSI M7-A7 method; assay type: functional
[37] = test system: Streptococcus intermedius; test: Antibacterial activity against Streptococcus intermedius by CLSI M100-S18 method; assay type: functional
Streptococcus equinus = test: Antibacterial activity against Streptococcus bovis by CLSI M100-S18 method; assay type: functional
Fusobacterium sp. [38] = test: Antibacterial activity against Fusobacterium sp. by CLSI M11-A7 method; assay type: functional
Moraxella catarrhalis = test: Antibacterial activity against Moraxella catarrhalis by CLSI M7-A7 method; assay type: functional
Staphylococcus hominis [39] = test: Antibacterial activity against Staphylococcus hominis assessed as percent susceptible isolates by CLSI M100-S18 method; assay type: functional
Clostridium perfringens [40] = test system: Clostridium perfringens
Streptococcus mitis = test: Antibacterial activity against Streptococcus mitis by CLSI M100-S18 method; assay type: functional
[41] = test system: Staphylococcus lugdunensis; test: Antibacterial activity against Staphylococcus lugdunensis assessed as percent susceptible isolates by CLSI M100-S18 method; assay type: functional
Prevotella sp. [42] = test: Antibacterial activity against Prevotella sp. by CLSI M11-A7 method; assay type: functional
Streptococcus sanguinis = test: Antibacterial activity against Streptococcus sanguinis by CLSI M100-S18 method; assay type: functional
Peptostreptococcus sp. [43] = test: Antibacterial activity against Peptostreptococcus sp. by CLSI M11-A7 method; assay type: functional
Streptococcus sp. [44] = test: Antibacterial activity against Lancefield Streptococcus sp. group F by CLSI M100-S18 method; assay type: functional
Bacteroides fragilis [45] = test: Antibacterial activity against Bacteroides fragilis by CLSI M11-A7 method; assay type: functional
[46] = test system: Staphylococcus epidermidis; test: Antibacterial activity against ciprofloxacin-susceptible and methicillin-resistant Staphylococcus epidermidis assessed as percent susceptible isolates by CLSI M100-S18 method; assay type: functional
[47] = test system: Staphylococcus lugdunensis; test: Antibacterial activity against Staphylococcus lugdunensis by CLSI M100-S18 method; assay type: functional
Cutibacterium acnes [48] = test: Antibacterial activity against Propionibacterium acnes by CLSI M11-A7 method; assay type: functional
Staphylococcus hominis [49] = test: Antibacterial activity against Staphylococcus hominis by CLSI M100-S18 method; assay type: functional
Streptococcus sp. [50] = test: Antibacterial activity against Lancefield Streptococcus sp. group F assessed as percent susceptible isolates by CLSI M100-S18 method; assay type: functional
Streptococcus anginosus = test: Antibacterial activity against Streptococcus anginosus by CLSI M100-S18 method; assay type: functional

Structure (SMILES): COc1c(N2CCNC(C)C2)c(F)cc2c(=O)c(C(=O)O)cn(C3CC3)c12 (stereo not given) [GATIFLOXACIN]
- Activity (Peptostreptococcus sp. [1]): inactive
- MIC50 [2]: 0.06 µg/mL (≈ 0.16 µM)
- MIC90 [2]: 1 µg/mL (≈ 2.66 µM)
- Activity (Bacteroides fragilis [3]): inactive
- Activity (Staphylococcus aureus [4]): 94.7%
- MIC90 [5]: inactive
- MIC50 (Streptococcus oralis): 0.06 µg/mL (≈ 0.16 µM)
- MIC90 (Streptococcus oralis): 1 µg/mL (≈ 2.66 µM)
- Activity (Staphylococcus aureus [6]): 54.5%
- MIC50 (Legionella pneumophila): 1 µg/mL (≈ 2.66 µM)
- MIC90 (Legionella pneumophila): 2 µg/mL (≈ 5.33 µM)
- Activity [7]: 100%
- MIC50 (Staphylococcus aureus [8]): 0.06 µg/mL (≈ 0.16 µM)
- MIC90 (Staphylococcus aureus [8]): 0.25 µg/mL (≈ 0.666 µM)
- Activity (Prevotella sp. [9]): inactive
- MIC50 (Streptococcus pyogenes [10]): 0.12 µg/mL (≈ 0.32 µM)
- MIC90 (Streptococcus pyogenes [10]): 0.25 µg/mL (≈ 0.666 µM)
- MIC50 [11]: 2 µg/mL (≈ 5.33 µM)
- MIC90 [11]: 8 µg/mL (≈ 21.3 µM)
- MIC [12]: 0.06 µg/mL (≈ 0.16 µM)
- MIC50 [12]: 0.06 µg/mL (≈ 0.16 µM)
- MIC50 (Citrobacter koseri [13]): 0.015 µg/mL (≈ 0.04 µM)
- MIC90 (Citrobacter koseri [13]): 0.12 µg/mL (≈ 0.32 µM)
- Activity (Streptococcus agalactiae [14]): 100%
- Activity [15]: 100%
- Activity [16]: 64.4%
- Activity (Cutibacterium acnes [17]): inactive
- Activity (Fusobacterium sp. [18]): inactive
- MIC50 (Streptococcus agalactiae [19]): 0.03 µg/mL (≈ 0.0799 µM)
- MIC90 (Streptococcus agalactiae [19]): 0.06 µg/mL (≈ 0.16 µM)
- Activity (Staphylococcus warneri [20]): 86%
- MIC50 (Streptococcus salivarius): 0.06 µg/mL (≈ 0.16 µM)
- MIC90 (Streptococcus salivarius): 1 µg/mL (≈ 2.66 µM)
- Activity [21]: 99%
- Activity (Streptococcus pyogenes [22]): <=0.015%
- MIC [23]: 1 µg/mL (≈ 2.66 µM)
- MIC50 [23]: 1 µg/mL (≈ 2.66 µM)
- Activity (Citrobacter koseri [24]): 99%
- Activity (Morganella morganii [25]): 90.2%
- MIC [26]: ≤ 0.015 µg/mL
- MIC50 [26]: ≤ 0.015 µg/mL
- MIC90 [26]: 0.06 µg/mL (≈ 0.16 µM)
- MIC [27]: ≤ 0.015 µg/mL
- MIC50 [27]: ≤ 0.015 µg/mL
- MIC90 [27]: 0.06 µg/mL (≈ 0.16 µM)
- MIC50 (Klebsiella oxytoca [28]): 0.03 µg/mL (≈ 0.0799 µM)
- MIC90 (Klebsiella oxytoca [28]): 0.5 µg/mL (≈ 1.33 µM)
- MIC50 [29]: 0.12 µg/mL (≈ 0.32 µM)
- MIC90 [29]: 0.25 µg/mL (≈ 0.666 µM)
- MIC50 (Clostridium perfringens [30]): 1 µg/mL (≈ 2.66 µM)
- MIC90 (Clostridium perfringens [30]): 1 µg/mL (≈ 2.66 µM)
- MIC50 (Staphylococcus warneri [31]): 0.12 µg/mL (≈ 0.32 µM)
- MIC90 (Staphylococcus warneri [31]): 4 µg/mL (≈ 10.7 µM)
- MIC50 (Staphylococcus aureus [32]): 4 µg/mL (≈ 10.7 µM)
- MIC90 (Staphylococcus aureus [32]): > 8 µg/mL
- Activity (Klebsiella oxytoca [33]): 96%
- MIC90 [34]: inactive
- Activity [35]: 83.3%
- MIC50 (Morganella morganii [36]): 0.12 µg/mL (≈ 0.32 µM)
- MIC90 (Morganella morganii [36]): > 8 µg/mL
- MIC50 [37]: 0.06 µg/mL (≈ 0.16 µM)
- MIC90 [37]: 1 µg/mL (≈ 2.66 µM)
- MIC50 (Streptococcus equinus): 0.06 µg/mL (≈ 0.16 µM)
- MIC90 (Streptococcus equinus): 1 µg/mL (≈ 2.66 µM)
- MIC50 (Fusobacterium sp. [38]): 1 µg/mL (≈ 2.66 µM)
- MIC90 (Fusobacterium sp. [38]): 4 µg/mL (≈ 10.7 µM)
- MIC50 (Moraxella catarrhalis): 0.25 µg/mL (≈ 0.666 µM)
- MIC90 (Moraxella catarrhalis): 0.25 µg/mL (≈ 0.666 µM)
- Activity (Staphylococcus hominis [39]): 32%
- Activity (Clostridium perfringens [40]): inactive
- MIC50 (Streptococcus mitis): 0.06 µg/mL (≈ 0.16 µM)
- MIC90 (Streptococcus mitis): 1 µg/mL (≈ 2.66 µM)
- Activity [41]: 60%
- MIC50 (Prevotella sp. [42]): 8 µg/mL (≈ 21.3 µM)
- MIC90 (Prevotella sp. [42]): 16 µg/mL (≈ 42.6 µM)
- MIC50 (Streptococcus sanguinis): 0.06 µg/mL (≈ 0.16 µM)
- MIC90 (Streptococcus sanguinis): 1 µg/mL (≈ 2.66 µM)
- MIC50 (Peptostreptococcus sp. [43]): 2 µg/mL (≈ 5.33 µM)
- MIC90 (Peptostreptococcus sp. [43]): 4 µg/mL (≈ 10.7 µM)
- MIC (Streptococcus sp. [44]): ≤ 0.015 µg/mL
- MIC50 (Streptococcus sp. [44]): ≤ 0.015 µg/mL
- MIC90 (Streptococcus sp. [44]): 0.06 µg/mL (≈ 0.16 µM)
- MIC50 (Bacteroides fragilis [45]): 2 µg/mL (≈ 5.33 µM)
- MIC90 (Bacteroides fragilis [45]): 4 µg/mL (≈ 10.7 µM)
- Activity [46]: 88.9%
- MIC50 [47]: 0.12 µg/mL (≈ 0.32 µM)
- MIC90 [47]: 2 µg/mL (≈ 5.33 µM)
- MIC (Cutibacterium acnes [48]): 0.25 µg/mL (≈ 0.666 µM)
- MIC50 (Cutibacterium acnes [48]): 0.25 µg/mL (≈ 0.666 µM)
- MIC90 (Cutibacterium acnes [48]): 0.5 µg/mL (≈ 1.33 µM)
- MIC50 (Staphylococcus hominis [49]): 1 µg/mL (≈ 2.66 µM)
- MIC90 (Staphylococcus hominis [49]): 4 µg/mL (≈ 10.7 µM)
- Activity (Streptococcus sp. [50]): 100%
- MIC50 (Streptococcus anginosus): 0.25 µg/mL (≈ 0.666 µM)
- MIC90 (Streptococcus anginosus): 0.5 µg/mL (≈ 1.33 µM)
